From patent publication US6376175B1, “Methods of discovering chemicals capable of functioning as gene expression modulators” (OSI Pharmaceuticals, Inc., priority 1989, dated 2002)

B1: Interferon-gamma: proteinaceous positive regulator (protein, UniProt P01579 24-161, looked up)
Interferon gamma: QDPYVKEAENLKKYFNAGHSDVADNGTLFLGILKNWKEESDRKIMQSQIVSFYFKLFKNFKDDQSIQKSVETIKEDMNVKFFNSNKKKRDDFEKLTNYSVTDLNVQRKAIHELIQVMAELSPAAKTGKRKRSQMLFRG

Experiments:
endogenous G-CSF mRNA = test: Northern blot of endogenous G-CSF mRNA in 5637 cells; type: cell-based, human; conditions: compared to solvent DMSO, normalized with beta-actin probe
Method: Total cellular RNA was isolated from the G21 cell clone or from untransfected 5637 cells following incubation for 6 hours with various transcriptionally modulating chemicals identified in the high-throughput screen. Cells were grown in serum free medium as described above. Total cellular RNA was isolated using the RNAZol method (CINNA/BIOTECX, Friendswood, Tex., Laboratories International, Inc.). Cells were resuspended and lysed with RNAZol solution (1.5 ml/9 cm petri dish) and the RNA was solubilized by passing the lysate a few times through a pipette. Chloroform was added to the homogenate (0.1 ml/1 ml), and samples were shaken for 15 seconds followed by a 5 minutes incubatoin on ice. After centrifuging for 10 minutes, the upper phase was collected and an equal volume of isopropanol was added. Samples were incubated for 45 minutes at −20 C, and the RNA was pelleted for 15 minutes at 12,000×g at 4 C. The RNA pellet was then washed with 70% ethanol and dried briefly under vacuum.
Total cellular RNA was isolated from 5637 cells following incubation with chemicals as described above and electrophoresed in a 1% Agarose-[…] Formaldehyde gel. The RNA was transferred to Duralon-UV nylon filters (Stratagene, La Jolla, Calif.) using the manufacturer's recommended protocol. The filters were prehybridized for 4 hours (prehybridizing solution=5X SSC, 50 mM sodium pyrophosphate, 10X Denhardt's solution, 10% dextran sulfate, 7% and 250 µg/ml denatured ssDNA) and then hybridized in the same solution for 16 hours at 65 C in the presence of G-CSF or Beta-Actin (Oncor, Gaithersburg, Md.) specific probes. The G-CSF probe was a 0.6 kb AflII o Xhol fragment which contained most of exon 5 of the human G-CSF gene. The B-actin probe was used as a control probe to normalize for the total amount of RNA. […] Bands were excised and counted in a liquid scintillation counter (LKB, Gaithersburg, Md.), and counts obtained with the G-CSF specific probe were normalized relative to the counts obtained with the B-Actin specific probe. […]

secreted G-CSF protein = test: Two-antibody sandwich immunoassay of G-CSF secreted by 5637 bladder carcinoma cells; type: cell-based, human; conditions: 5637 cells, 48 hours, serum-containing media; TNF-alpha 5 ng/ml; #542 50 uM; #1780 1 uM and 0.2 uM; FIG. 55
Method: Supernatants from 5637 bladder carcinoma cells incubated with chemicals registering as positives in the G-CSF promoter/luciferase High-Throughput assay were assayed for secreted G-CSF protein using the two-antibody sandwich immunoassay (96). The G-CSF Assay kit manufactured by Oncogene Science, Inc. was used and the manufacturer's instructions were followed.
The levels of G-CSF in the cell supernatants were determined by a sandwich-antibody assay as described in Materials and Methods (FIG. 55).

GM-CSF mRNA = test: S1 nuclease protection, GM-CSF mRNA in 5637 cells; type: cell-based, human; conditions: 18 hours, low, medium and high concentrations
Method: (§1) S1 Nuclease protection assays were carried out as described in reference 94.
(§2) To further confirm, that compounds that had been identified in a luciferase expression assay using a G-CSF specific reporter cell line would be active in inducing transcription of the endogenous G-CSF gene, cells from the parental cell line 5637 used to construct the reporter cell line were incubated with cycloheximide (25 microg/ml), DMSO (0.5%, solvent control) and low, medium and high concentrations of the compounds 542 (10, 50, 250 microM),1255 (20, 100, 500 microM), 1793(0.25, 1.2, 6.25 microM) and 1904 (20, 100 microM) for 18 hours. RNA was extracted and the concentration of G-CSF, GM-CSF and gamma-actin mRNA was determined by the S1 protection method as described in Materials and Methods. The positions of G-CSF GM-CSF and gamma-actin specific protected fragments are indicated (G, GM, A) at the left side of the gel (FIG. 54).

G-CSF mRNA = test: S1 nuclease protection, G-CSF mRNA in 5637 cells; type: cell-based, human; conditions: 18 hours, 542 (10, 50, 250 microM), 1255 (20, 100, 500 microM), 1793 (0.25, 1.2, 6.25 microM), 1904 (20, 100 microM)
Method: as §1, §2

FRE cells = type: cell-based
Method: To determine cytotoxic concentrations of chemicals registering as positives in the High-Throughput luciferase assay the MTT cytotoxicity assay was employed (95). In this assay, a tetrazolium salt [3-(4,5-dimethylthiazol-2-yl)-2,5-diphenyl-tetrazolium bromide, MTT] is reduced to a colored formazan product by reducing enzymes present only in living metabolically active cells.
Cells were seeded into 96 well microtiterplates (20 000 cells/well) and cultured overnight. Compound #542 was added at various concentrations and the cells were incubated for 6 hours. Luciferase activity was determined as described in Materials and Methods. The MTT-colorimetric assay was carried out on identically treated samples of FRE cells. Induction of luciferase reporter signal (plain line) and on inhibition of respiration (dashed line) are plotted versus the concentrations of compound (FIG. 56). The ED50 for induction of luciferase activity differed from the ED50 for inhibition of respiration by a factor of almost 10, which might indicate that compound #542 exerts a specific effect on G- and GM-CSF transcription.

Molecule | endogenous G-CSF mRNA production (Northern blot) (endogenous G-CSF mRNA) | amount of GM-CSF mRNA (S1 protection) (GM-CSF mRNA) | amount of G-CSF mRNA (S1 protection) (G-CSF mRNA) | also measured
CN(C)c1ccc(C(=C2C=CC(=[N+](C)C)C=C2)c2ccc([N+](C)(C)C)cc2)cc1.[Cl-].[Cl-] [Chemical 670, Methyl Green] | stimulated production of G-CSF mRNA |  |  | 
CN(C)c1ccc(C(=C2C=CC(=[N+](C)C)C=C2)c2ccc(N(C)C)cc2)cc1 [Chemical 1780, Crystal Violet] |  |  |  | G-CSF secretion into media (secreted G-CSF protein): increased G-CSF secretion
O=c1[nH]c(=O)n([C@H]2C[C@H](O)[C@@H](CO)O2)cc1Br [Chemical 543, 5-Bromo-2′-deoxyuridine] |  | showed similar activity |  | 
Nc1nc(=O)n([C@H]2C[C@H](O)[C@@H](CO)O2)cc1Br [Chemical 542, 5-Bromo-2′-deoxycytidine] |  | increased the amount of GM-CSF mRNA | increased mRNA production | factor between ED50 for induction of luciferase activity (G21) and ED50 for inhibition of respiration (FRE cells) (FRE cells): ~10; G-CSF secretion into media (secreted G-CSF protein): increased G-CSF secretion
CN(C)C(=S)SCC#N [Chemical 1793, Cyanomethyl-N,N-dimethyl dithiocarbomate] |  | increased the amount of GM-CSF mRNA | increased mRNA production | 
Clc1cc(Cl)cc(Br)c1 [Chemical 1255, 1-Bromo-3,5-dichlorobenzene] | stimulated production of G-CSF mRNA |  | increased mRNA production | 
B1 | increased G-CSF mRNA production |  |  | 
